According to patent US20130109698A1, “Small Molecule Inhibitors of Functions of the HIV-1 Matrix Protein” (priority 2010, published 2013):

Key:
HIV-1 Ba-L = assay: Antiviral activity of additional compounds (Tables 6 and 7); format: cell-based; conditions: for IC50 / IC90: Human immunodeficiency virus 1, BAL
Protocol: (§1) HIV human peripheral blood mononuclear cell (PBMC) assays were performed as described previously (Lanier et al., 2010, Antimicrob Agents Chemother 54:2901-2909 and Ptak et al., 2008, Antimicrob Agents Chemother 52:1302-1317). Briefly, fresh PBMCs, seronegative for HIV and hepatitis B virus (HBV), were isolated from blood samples of the screened donors (Biological Specialty Corporation, Colmar, Pa.) by using lymphocyte separation medium (LSM; density, 1.078±0.002 g/ml; Cellgro; Mediatech, Inc.) by following the manufacturer's instructions. Cells were stimulated by incubation in 4 μg/mL phytohemagglutinin (PHA; Sigma) for 48 to 72 h. Mitogenic stimulation was maintained by the addition of 20 U/mL recombinant human interleukin-2 (rhIL-2; R&D Systems, Inc.) to the culture medium. PHA-stimulated PBMCs from at least two donors were pooled, diluted in fresh medium, and added to 96-well plates at 5×10^4 cells/well. Cells were infected (final multiplicity of infection [MOI] of ≅0.1) in the presence of nine different concentrations of test compounds (triplicate wells/concentration) and incubated for 7 days. To determine the level of virus inhibition, cell-free supernatant samples were collected for analysis of reverse transcriptase activity (Buckheit et al., 1991, AIDS Res Hum Retroviruses 7:295-302). Following removal of supernatant samples, compound cytotoxicity was measured by the addition of 3-(4,5-dimethylthiazol-2-yl)-5-(3-carboxymethoxy-phenyl)-2-(4-sulfophenyl)-2H-tetrazolium (MTS; CellTiter 96 reagent; Promega) by following the manufacturer's instructions.

HIV-1 NL4-3 = assay: as above; format: cell-based; conditions: for IC50 / IC90: Human immunodeficiency virus 1, NL43
Protocol: as §1

[1] = Compound cytotoxicity in PBMCs (MTS); format: cell-based, human; conditions: human; Tables 6 and 7 study; read-out: TC50
Protocol: as §1

| SMILES | IC50 (HIV-1 Ba-L) [µM] | IC90 (HIV-1 Ba-L) [µM] | IC50 (HIV-1 NL4-3) [µM] | IC90 (HIV-1 NL4-3) [µM] | CC50 at 7 days [1] [µM] | Antiviral index (TC50/IC50) (HIV-1 Ba-L) | Antiviral index (TC50/IC50) (HIV-1 NL4-3) |
| --- | --- | --- | --- | --- | --- | --- | --- |
| O=C(CNC(=O)COc1ccccc1)NCc1ccc(Cl)cc1 [CMPD-35, N-(4-chlorobenzyl)-2-(2-phenoxyacetamido)acetamide] | > 100 | > 100 | > 100 | > 100 | > 100 | – | – |
| COc1ccc(CNC(=O)CNC(=O)COc2ccccc2)cc1 [CMPD-36, N-(4-methoxybenzyl)-2-(2-phenoxyacetamido)acetamide] | > 100 | > 100 | > 100 | > 100 | > 100 | – | – |
| O=C(CNC(=O)COc1ccccc1)NCc1ccc(C(F)(F)F)cc1 [CMPD-37, N-(2-oxo-2-((4-(trifluoromethyl)benzyl)amino)ethyl)-2-phenoxyacetamide] | > 100 | > 100 | > 100 | > 100 | > 100 | – | – |
| O=C(CNC(=O)COc1ccccc1)NCc1ccccc1 [CMPD-38, N-benzyl-2-(2-phenoxyacetamido)acetamide] | > 100 | > 100 | > 100 | > 100 | > 100 | – | – |
| O=C(CNC(=O)COc1ccccc1)NCc1cccc(Cl)c1 [CMPD-39, N-(3-chlorobenzyl)-2-(2-phenoxyacetamido)acetamide] | > 100 | > 100 | > 100 | > 100 | > 100 | – | – |
| CN1CCN(C(=O)c2ccc(CNC(=O)CNC(=O)COc3ccccc3)cc2)CC1 [CMPD-40, N-(4-(4-methylpiperazine-1-carbonyl)benzyl)-2-(2-phenoxyacetamido)acetamide] | > 100 | > 100 | > 100 | > 100 | > 100 | – | – |
| CC(=O)NCC(=O)NCc1ccc(C(=O)N2CCN(C)CC2)cc1 [CMPD-41, 2-acetamido-N-(4-(4-methylpiperazine-1-carbonyl)benzyl)acetamide] | > 100 | > 100 | > 100 | > 100 | > 100 | – | – |
| CN1CCN(C(=O)c2ccc(CNC(=O)CNC(=O)COc3ccc(Cl)cc3)cc2)CC1 [CMPD-42, 2-(4-chlorophenoxy)-N-(2-((4-(4-methylpiperazine-1-carbonyl)benzyl)amino)-2-oxoethyl)acetamide] | > 100 | > 100 | > 100 | > 100 | > 100 | – | – |
| COc1ccc(OCC(=O)NCC(=O)NCc2ccc(C(=O)N3CCN(C)CC3)cc2)cc1 [CMPD-43, 2-(4-methoxyphenoxy)-N-(2-((4-(4-methylpiperazine-1-carbonyl)benzyl)amino)-2-oxoethyl)acetamide] | > 100 | > 100 | > 100 | > 100 | > 100 | – | – |
| CN1CCN(C(=O)c2ccc(CNC(=O)CNC(=O)COc3ccc(C(F)(F)F)cc3)cc2)CC1 [CMPD-44, N-(4-(4-methylpiperazine-1-carbonyl)benzyl)-2-(2-(4-(trifluoromethyl)phenoxy)acetamido)acetamide] | > 100 | > 100 | > 100 | > 100 | > 100 | – | – |
| CC(=O)NCC(=O)NCc1ccc(C(=O)N2CCCCC2)cc1 [CMPD-45, 2-acetamido-N-(4-(piperidine-1-carbonyl)benzyl)acetamide] | > 100 | > 100 | > 100 | > 100 | > 100 | – | – |
| O=C(CNC(=O)COc1ccc(Cl)cc1)NCc1ccc(C(=O)N2CCCCC2)cc1 [CMPD-46, 2-(4-chlorophenoxy)-N-(2-oxo-2-((4-(piperidine-1-carbonyl)benzyl)amino)ethyl)acetamide] | 72.6 | > 100 | 78.1 | > 100 | > 100 | > 1.38 | > 1.28 |
